Converted amounts (≈) assume the structure as drawn.
Assays:
Streptococcus pneumoniae = experiment: MIC test, microdilution method (CLSI); type: cell-based; details: ATCC strain of Streptococcus pneumoniae, 18-20 h at 37° C., MIC = concentration at which growth inhibited ≥80%, read-out: Activity (MIC) Spn
Procedure: (§1) Experimental Procedure: MIC Test. Microdilution Method
(§2) To evaluate the antimicrobial activity of the compounds, ATCC strains of Streptococcus pneumoniae and Streptococcus pyogenes were used. The minimal inhibitory concentrations (MICs) of the compounds were determined by microdilution assays, according to CLSI methodology.
(§3) 3 mg of compound were weighted in a 4 mL glass vials and were dissolved in properly volume of DMSO 100% (Reference: D2438-50, Sigma) to reach 12.8 mg/mL. (Cmax.).
(§4) In 96-well plates U-form (Reference: 650161, Greiner Bio-One): • Dispense 50 μL of the assayed compounds prepared in DMSO 100% at 12.8 mg/mL in each well in column 1. (8 different compounds per plate, row 1 to row 8) • Dispense 25 μL of DMSO 100% in all wells in columns 2 to 12. • With a multichannel pipette, aspire 25 μL of column 1 and dispense in column 2. Mix the contents in column 2 several times and aspire 25 uL. Dispense in column 3. • Repeat the process until column 10. In column 10, aspire 25 μL of the content and discard. • The final mother plate map is (all values in mg/mL)
(§5) In 96-well plates U-form: • With a multichannel pipette (in dispensing mode), aspire a properly volume (consider the number of copies of the mother plate do you want to perform) of all wells in mother plate, to dispense 1 μL/well in daughter plates.
(§6) Bacterial suspension will be prepared and normalized to 0.5 McFarland turbidity standard (approximately 10^8 CFU/mL) using a physiological saline solution (sodium chloride 0,9%). Then, prepared a 1/1000 dilution (approximately 10^5 CFU/mL) of the suspension in appropriate media (CLSI Standard) and inoculate 99 μL in each well in daughter plates (only columns 1 to 11) using a multidrop™ Combi Reagent Dispenser. In column 12, only 99 μL of media will be dispense as a sterility control.
(§7) The final plate map is (all values in μg/mL):
(§8) Plates will be incubated 18-20 h at 37° C. MIC values will be considered as the concentration of compounds at which the growth will be inhibited=>≥80%, compared to growth control.

Streptococcus pyogenes = experiment: MIC test, microdilution method (CLSI); type: cell-based; details: ATCC strain of Streptococcus pyogenes, 18-20 h at 37° C., MIC = concentration at which growth inhibited ≥80%, read-out: Activity (MIC) Spy
Procedure: as §1, §2, §3, §4, §5, §6, §7, §8

| Compound | MIC (Streptococcus pneumoniae) | MIC (Streptococcus pyogenes) |
| --- | --- | --- |
| CC(C)C[C@H](Oc1ccc(C(=O)NC[C@H](O)C(N)=O)cc1)c1ccc(-c2ccc(C(F)(F)F)cc2)cc1 [Example 5, N-((S)-3-amino-2-hydroxy-3-oxopropyl)-4-((S)-3-methyl-1-(4′-(trifluoromethyl)-[1,1′-bipheny]-4-yl)butoxy)benzamide] | > 128 µg/mL | > 128 µg/mL |
| CC(C)[C@H](Oc1ccc(C(=O)NC[C@H](O)C(N)=O)cc1)c1ccc(-c2ccc(C(F)(F)F)cc2)cc1 [Example 6, N-((S)-3-amino-2-hydroxy-3-oxopropyl)-4-((S)-2-methyl-1-(4′-(trifluoromethyl)-[1,1′-biphenyl]-4-yl)propoxy)benzamide] | 4 µg/mL (≈ 7.99 µM) | 4 µg/mL (≈ 7.99 µM) |
| CNC(=O)[C@@H](O)CNC(=O)c1ccc(O[C@@H](CC2CCCCC2)c2cccc(-c3ccc(C(F)(F)F)cc3)c2)cc1 [Example 8, 4-((S)-2-cyclohexyl-1-(4′-(trifluoromethyl)-[1,1′-biphenyl]-3-yl)ethoxy)-N-((S)-2-hydroxy-3-(methylamino)-3-oxopropyl)benzamide] | 4 µg/mL (≈ 7.03 µM) | 4 µg/mL (≈ 7.03 µM) |

Continued, values first:

| MIC (Streptococcus pneumoniae) | MIC (Streptococcus pyogenes) | Compound |
| --- | --- | --- |
| 4 µg/mL (≈ 7.93 µM) | 4 µg/mL (≈ 7.93 µM) | NC(=O)[C@@H](O)CNC(=O)c1ccc(O[C@@H](CC2CCCCC2)c2ccc(-c3ccc(F)cc3)cc2)cc1 [Example 1, N-((S)-3-Amino-2-hydroxy-3-oxopropyl)-4-((S)-2-cyclohexyl-1-(4′-fluoro-[1,1′-biphenyl]-4-yl)ethoxy)benzamide] |
| 2 µg/mL (≈ 3.61 µM) | 1 µg/mL (≈ 1.8 µM) | NC(=O)[C@@H](O)CNC(=O)c1ccc(O[C@@H](CC2CCCCC2)c2cccc(-c3ccc(C(F)(F)F)cc3)c2)cc1 [Example 2, N-((S)-3-Amino-2-hydroxy-3-oxopropyl)-4-((S)-2-cyclohexyl-1-(4′-(trifluoromethyl)-[1,1′-biphenyl]-3-yl)ethoxy)benzamide] |
| > 128 µg/mL | > 128 µg/mL | NC(=O)[C@@H](O)CNC(=O)c1ccc(O[C@@H](CC2CCOCC2)c2ccc(-c3ccc(C(F)(F)F)cc3)cc2)cc1 [Example 4, N-((S)-3-amino-2-hydroxy-3-oxopropyl)-4-((S)-2-(tetrahydro-2H-pyran-4-yl)-1-(4′-(trifluoromethyl)-[1,1′-biphenyl]-4-yl)ethoxy)benzamide] |

Source: patent US20260225998A1, “NEW COMPOUNDS FOR TREATING STREPTOCOCCUS INFECTIONS” (AB2 THERAPEUTICS, S. L., priority 2023, published 2026)
